The values below come from US20190119282A1, “IMIDAZOPYRIDAZINES USEFUL AS INHIBITORS OF THE PAR-2 SIGNALING PATHWAY” (Vertex Pharmaceuticals Incorporated, priority 2013, published 2019).

Test [1] deals with T1, PAR2 (HT-29 cells, SLIGKV activation) (Homo sapiens, UniProt P55085).
T1 construct: host or cells: HT-29 cells
T1 sequence (P55085 26-397): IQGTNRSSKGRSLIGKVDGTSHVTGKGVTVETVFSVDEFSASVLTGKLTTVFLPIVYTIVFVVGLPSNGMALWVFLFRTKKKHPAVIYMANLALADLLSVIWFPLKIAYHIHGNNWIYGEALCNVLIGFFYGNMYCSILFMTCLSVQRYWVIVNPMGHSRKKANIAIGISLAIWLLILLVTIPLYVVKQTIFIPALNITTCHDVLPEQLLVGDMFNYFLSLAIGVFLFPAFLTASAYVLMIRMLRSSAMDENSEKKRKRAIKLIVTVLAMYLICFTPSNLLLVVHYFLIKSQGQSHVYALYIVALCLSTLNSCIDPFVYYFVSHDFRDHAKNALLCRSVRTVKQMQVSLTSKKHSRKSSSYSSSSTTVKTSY
Kind of test: Ca FLIPR TETRA assay, ANTAGONIST mode, stimulation with 8 μM SLIGKV. Format: cell-based. To be noted: HT-29 cells, antagonist mode, stimulation with 8 μM SLIGKV. The procedure, abridged:
(§1)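 Inhibition of activator-evoked Ca2+ flux was recorded on FLIPR Tetra in HT-29 cells after 30 min compound exposure at r.t. A prior read checked whether compounds alone triggered Ca2+ release.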

Test [2] relates to UTP-stimulated Ca2+ response in HT-29 cells. Kind of test: Ca FLIPR TETRA assay, ANTAGONIST mode, stimulation with 0.6 μM UTP. Format: cell-based, human. Particulars: Homo sapiens; HT-29 cells, antagonist mode, stimulation with 0.6 μM UTP. The procedure, abridged: as §1
The test system of test [3] is Thrombin-stimulated Ca2+ response in HT-29 cells. Nature of the test: Ca FLIPR TETRA assay, ANTAGONIST mode, stimulation with 1 U/mL Thrombin. Format: cell-based, human. To be noted: Homo sapiens; HT-29 cells, antagonist mode, stimulation with 1 U/mL Thrombin. The procedure, abridged:
as §1

Test [4] deals with T2, PAR2 (HT-29 cells, trypsin activation) (Homo sapiens, UniProt P55085).
T2 construct: host or cells: HT-29 cells
T2 sequence (P55085 26-397): T1 sequence (P55085 26-397)
Kind of test: Ca FLIPR TETRA assay, ANTAGONIST mode, stimulation with 3.1 U/mL trypsin. Format: cell-based. Particulars: HT-29 cells, antagonist mode, stimulation with 3.1 U/mL trypsin. The method in brief: as §1

As usually defined, the IC50 is the point on the concentration scale where inhibition reaches its midpoint. Consider `CC(C)(C)c1cc(-c2ccc(Cl)cc2)nn2cc(C(=O)N3CCNC(=O)C3(C)C)nc12` [Compound I-361], for which the IC50 in test [1] is 2.7 nM; in test [2], greater than 1000 nM; in test [3], greater than 1000 nM; in test [4], 2.2 nM.

With `CC(C)(F)c1cc(-c2ccc(F)cc2)nn2cc(C(=O)N3CCNC(=O)C3(C)C)nc12` [Compound I-362], the IC50 in test [1] is 13 nM; in test [2], greater than 1000 nM; in test [3] it was greater than 1000 nM; in test [4], 31 nM.

Take `CC(C)c1cc(-c2ccc(F)c(Cl)c2)nn2cc(C(=O)N3CCNC(=O)C3(C)C)nc12` [Compound I-363]: the IC50 in test [1] was 5.4 nM; in test [2], greater than 1000 nM; in test [3], greater than 1000 nM; in test [4] it was 2.8 nM.

Regarding `Cc1ccc(-c2cc(C(C)(C)C)c3nc(C(=O)N4CCN(c5cn[nH]c5)C(=O)C4(C)C)cn3n2)cc1` [Compound I-364], the IC50 in test [1] is 1.5 nM; in test [2], greater than 1000 nM; in test [3], greater than 1000 nM; in test [4] it was 1.7 nM.

Regarding `Cc1ccc(-c2cc(C(C)(C)C)c3nc(C(=O)N4CCN(c5cn[nH]c5)C(=O)C4(C)C)cn3n2)cc1F` [Compound I-365], the IC50 in test [1] was 1.1 nM; in test [2], greater than 1000 nM; in test [3] it was greater than 1000 nM; in test [4] it was 1.5 nM.

`Cc1nc(N2CCN(C(=O)c3cn4nc(-c5ccc(F)cc5)cc(C(C)(C)C)c4n3)C(C)(C)C2=O)c[nH]1` [Compound I-367]: the IC50 in test [1] was 2.6 nM; in test [2], greater than 1000 nM; in test [3] it was greater than 1000 nM; in test [4] it was 4.2 nM.

In the case of `Cc1ccc(-c2cc(C(C)(C)C)c3nc(C(=O)N4CCN(c5c[nH]c(C)n5)C(=O)C4(C)C)cn3n2)cc1` [Compound I-368], the IC50 in test [1] is 5.2 nM; in test [2] it was greater than 1000 nM; in test [3], greater than 1000 nM; in test [4] it was 6.8 nM.

With `Cc1nc(N2CCN(C(=O)c3cn4nc(-c5ccc(C)c(F)c5)cc(C(C)(C)C)c4n3)C(C)(C)C2=O)c[nH]1` [Compound I-369], the IC50 in test [1] is 5.4 nM; in test [2], greater than 1000 nM; in test [3], greater than 1000 nM; in test [4] it was 7.3 nM.

`CC(C)c1cc(-c2ccc(C(F)(F)F)cc2)nn2cc(C(=O)N3CCN(C(=O)c4ncccn4)CC3(C)C)nc12` [Compound I-370]: the IC50 was 7.7 nM in test [1], greater than 1000 nM in test [2], greater than 1000 nM in test [3] and 10.4 nM in test [4].

For the compound `CC(C)c1cc(-c2ccc(C(F)(F)F)cc2)nn2cc(C(=O)N3CCN(C(=O)C4CC(C)(O)C4)CC3(C)C)nc12` (stereo not shown) [Compound I-371], the IC50 in test [1] is 1.3 nM; in test [2] it was greater than 1000 nM; in test [3], greater than 1000 nM; in test [4] it was 1.6 nM.

As to `Cc1nc(C(=O)N2CCN(C(=O)c3cn4nc(-c5ccc(C(F)(F)F)cc5)cc(C(C)C)c4n3)C(C)(C)C2)c[nH]1` [Compound I-372], the IC50 in test [1] is 4.5 nM; in test [2] it was greater than 1000 nM; in test [3], greater than 1000 nM; in test [4] it was 5.6 nM.

Turning to `Cc1ccc(-c2cc(C(C)C)c3nc(C(=O)N4CCN(C(=O)c5ncccn5)CC4(C)C)cn3n2)cc1F` [Compound I-373], the IC50 in test [1] was 6.5 nM; in test [2], greater than 1000 nM; in test [3], greater than 1000 nM; in test [4] it was 8.1 nM.

For `Cc1ccc(-c2cc(C(C)C)c3nc(C(=O)N4CCN(C(=O)c5ccn[nH]5)CC4(C)C)cn3n2)cc1F` [Compound I-374], the IC50 was 1.4 nM in test [1], greater than 1000 nM in test [2], greater than 1000 nM in test [3] and 1.6 nM in test [4].

In the case of `Cc1ccc(-c2cc(C(C)C)c3nc(C(=O)N4CCN(C(=O)c5ccccn5)CC4(C)C)cn3n2)cc1F` [Compound I-375], the IC50 in test [1] was 2.3 nM; in test [2] it was greater than 1000 nM; in test [3] it was greater than 1000 nM; in test [4], 3.8 nM.

As for `Cc1nc(C(=O)N2CCN(C(=O)c3cn4nc(-c5ccc(C)c(F)c5)cc(C(C)C)c4n3)C(C)(C)C2)c[nH]1` [Compound I-376], the IC50 in test [1] is 2 nM; in test [2], greater than 1000 nM; in test [3], greater than 1000 nM; in test [4], 3.2 nM.

Regarding `Cc1cc(-c2cc(C(C)C)c3nc(C(=O)N4CCN(C(=O)c5ncccn5)CC4(C)C)cn3n2)ccc1F` [Compound I-377], the IC50 in test [1] was 19 nM; in test [2] it was greater than 1000 nM; in test [3], greater than 1000 nM; in test [4], 29 nM.

For `Cc1cc(-c2cc(C(C)C)c3nc(C(=O)N4CCN(C(=O)C5CC(C)(O)C5)CC4(C)C)cn3n2)ccc1F` (stereo not shown) [Compound I-378], the half-maximal inhibitory concentration (IC50) in test [1] is 5 nM; in test [2], greater than 1000 nM; in test [3], greater than 1000 nM; in test [4], 7.2 nM.

On to `Cc1cc(-c2cc(C(C)C)c3nc(C(=O)N4CCN(C(=O)c5ccccn5)CC4(C)C)cn3n2)ccc1F` [Compound I-379], for which the IC50 was 9.4 nM in test [1], greater than 1000 nM in test [2], greater than 1000 nM in test [3] and 10.5 nM in test [4].

As to `Cc1nc(C(=O)N2CCN(C(=O)c3cn4nc(-c5ccc(F)c(C)c5)cc(C(C)C)c4n3)C(C)(C)C2)c[nH]1` [Compound I-380], the IC50 in test [1] is 8.3 nM; in test [2], greater than 1000 nM; in test [3], greater than 1000 nM; in test [4], 7.4 nM.

With `Cc1cc(-c2cc(C(C)(C)C)c3nc(C(=O)N4CCN(C(=O)c5ccn[nH]5)CC4(C)C)cn3n2)ccc1F` [Compound I-381], the half-inhibitory concentration (IC50) was 1.3 nM in test [1], greater than 1000 nM in test [2], greater than 1000 nM in test [3] and 1.2 nM in test [4].

In the case of `Cc1cc(C(=O)N2CCN(C(=O)c3cn4nc(-c5ccc(F)c(C)c5)cc(C(C)(C)C)c4n3)C(C)(C)C2)[nH]n1` [Compound I-382], the IC50 in test [1] was 0.6 nM; in test [2], greater than 1000 nM; in test [3], greater than 1000 nM; in test [4] it was 0.7 nM.

Turning to `Cc1nc(C(=O)N2CCN(C(=O)c3cn4nc(-c5ccc(F)c(C)c5)cc(C(C)(C)C)c4n3)C(C)(C)C2)c[nH]1` [Compound I-383], the half-inhibitory concentration (IC50) is 1.9 nM in test [1], greater than 1000 nM in test [2], greater than 1000 nM in test [3] and 2.9 nM in test [4].

In the case of `Cc1cc(-c2cc(C(C)(C)C)c3nc(C(=O)N4CCN(C(=O)C5CC(C)(O)C5)CC4(C)C)cn3n2)ccc1F` (stereo not shown) [Compound I-384], the IC50 in test [1] is 0.6 nM; in test [2], greater than 1000 nM; in test [3], greater than 1000 nM; in test [4], 0.8 nM.

For the compound `Cc1nnc(C(=O)N2CCN(C(=O)c3cn4nc(-c5ccc(F)c(C)c5)cc(C(C)(C)C)c4n3)C(C)(C)C2)o1` [Compound I-385], the IC50 in test [1] was 2.2 nM; in test [2] it was greater than 1000 nM; in test [3], greater than 1000 nM; in test [4], 4.3 nM.

For the compound `Cc1cc(-c2cc(C(C)(C)C)c3nc(C(=O)N4CCN(C(=O)c5ccccn5)CC4(C)C)cn3n2)ccc1F` [Compound I-386], the half-inhibitory concentration (IC50) in test [1] was 1.7 nM; in test [2] it was greater than 1000 nM; in test [3], greater than 1000 nM; in test [4], 2.6 nM.

Take `Cc1cc(-c2cc(C(C)(C)C)c3nc(C(=O)N4CCN(C(=O)c5ncccn5)CC4(C)C)cn3n2)ccc1F` [Compound I-387]: the IC50 in test [1] is 1.4 nM; in test [2], greater than 1000 nM; in test [3] it was greater than 1000 nM; in test [4], 3.1 nM.

Turning to `Cc1cc(-c2cc(C(C)C)c3nc(C(=O)N4CCN(c5c[nH]cn5)C(=O)C4(C)C)cn3n2)ccc1F` [Compound I-388], the concentration for half-maximal inhibition (IC50) in test [1] is 12.5 nM; in test [2], greater than 1000 nM; in test [3] it was greater than 1000 nM; in test [4], 15.5 nM.

For the compound `Cc1nc(N2CCN(C(=O)c3cn4nc(-c5ccc(F)c(C)c5)cc(C(C)C)c4n3)C(C)(C)C2=O)c[nH]1` [Compound I-389], the IC50 in test [1] is 20 nM; in test [2], greater than 1000 nM; in test [3] it was greater than 1000 nM; in test [4], 25 nM.

With `Cc1cc(C(=O)N2CCN(C(=O)c3cn4nc(-c5ccc(C(F)(F)F)cc5)cc(C(C)C)c4n3)C(C)(C)C2)[nH]n1` [Compound I-390], the IC50 was 1 nM in test [1], greater than 1000 nM in test [2], greater than 1000 nM in test [3] and 1.3 nM in test [4].

For `Cc1ccc(-c2cc(C(C)(C)C)c3nc(C(=O)N4CCN(C(=O)c5ccccn5)CC4(C)C)cn3n2)cc1` [Compound I-391], the IC50 in test [1] is 1.8 nM; in test [2], greater than 1000 nM; in test [3], greater than 1000 nM; in test [4], 2.2 nM.

Turning to `Cc1ccc(-c2cc(C(C)(C)C)c3nc(C(=O)N4CCN(C(=O)c5ncccn5)CC4(C)C)cn3n2)cc1` [Compound I-392], the IC50 is 1.4 nM in test [1], greater than 1000 nM in test [2], greater than 1000 nM in test [3] and 2.5 nM in test [4].
